These results are taken from a melting point compilation (Tetko et al.; mined from patent text by program, amines drawn as free bases though some values may be those of a salt).

Structures are written as SMILES.

As to `Cn1c2ccccc2c2nc3cccc(CO)c3nc21`, the melting point (in general, the temperature, or range, at which the solid turns liquid) came to 201 °C.
In turn, `COC(=O)c1cc(-c2ccc3occc3c2)n[nH]c1=O` came in with a melting point of 222 to 225 °C.
`CCNC(=O)c1ccc(-n2nnc(C(=O)NC3CC3)c2CSC)cc1` came in with a melting point of 192 °C.
Compound `CS(=O)(=O)Nc1cc([N+](=O)[O-])ccc1Oc1ccccc1` displayed a melting point of 112 to 114 °C.
Consider `COc1cc2c(cc1Nc1ncc(Cl)c(Nc3cccc(N4CCOCC4)c3)n1)CCN(CC(=O)N(C)C)CC2`, for which the melting point lay in the range of 91 to 111 °C.
Take `O=C1CCC(c2ccc(NC(=O)CCNCCc3ccccc3)cc2)=NN1`: the melting point fell in the range of 130 to 132 °C.
Regarding `c1cc(-c2ccsc2)ccn1`, the melting point is 138 °C.
For the compound `COc1ccccc1C(=C/C=C/C(=O)Oc1ccc([N+](=O)[O-])cc1)c1ccccc1OC`, the melting point fell in the range of 142 to 143 °C.
The value for `COC(=O)c1nc(-c2cnco2)cc(N)c1Cl` was 166 to 170 °C; that for `CCOC(=O)CSc1nc(Cl)c(C)c(Cl)n1` was 66 to 70 °C; that for `CCOC(=O)Cc1sc(Sc2nccc(C)c2C(=O)O)nc1C` was 169 to 171 °C.
`O=C(NC(Cc1ccncc1)C(=O)O)OCc1cc2cc(-c3cccnc3)ccc2o1` (stereo not given) gave a melting point of 257 °C.
As for `Cc1cc(I)ccc1-n1c(C(F)(F)F)nn(C)c1=S`, the melting point fell in the range of 104 to 107 °C.
`Cc1cc(C(N)=NO)ccc1[N+](=O)[O-]` yielded a melting point of 127 to 129 °C.
As for `N#Cc1[nH]c(Br)c(C#N)c1Br`, the melting point lay within 227 to 232 °C.
In turn, `CCOC(=O)C1=CC(C(=O)c2cc(Cl)c(C)cc2O)=CN2CCc3c([nH]c4ccccc34)C12C(=O)OCC` (stereo not given) registered a melting point of 196 °C.
With `Cc1ccc(N)cc1Nc1nccc(-c2cncnc2)n1` the figure was 164 to 167 °C; with `CC[C@]12CC[C@@H]3c4ccc(O)cc4CC[C@H]3[C@@H]1C=CC2=O`, 230 °C; with `CN1CCN(c2nn3ccnc3c3c2CCCC3)CC1`, 79.5 °C.
Compound `Cc1ccc2c(c1)/C(=N\NC(=O)NCc1ccccc1)C(=O)N2CCN(C(C)C)C(C)C` returned a melting point of 159 to 160 °C.
With `Fc1cnc(OC(c2ccnc3cc(Cl)ccc23)C(F)(F)F)nc1` (stereo not given) the figure was 92 °C; with `Fc1cccc(-c2cncnc2)c1`, 63 to 63.5 °C.
`COCCN1CSC(=Cc2cc(C(C)(C)C)c(O)c(C(C)(C)C)c2)C1=O` registered a melting point of 147 to 149 °C.
The compound `O=[N+]([O-])c1nccn1C(Br)CBr` (stereo not given) yielded a melting point of 102 to 106 °C.
The value for `COc1cccc(C2(CCC(=O)O)NC(=O)NC2=O)c1` (stereo not given) was 138 °C; that for `CN1CCN(c2cccc3c2C[C@H](NC(=O)c2cccc(OS(C)(=O)=O)c2)CC3)CC1` was 159 to 160 °C.
Consider `Clc1cccc(N2CCN(CCCCOc3ccc4scnc4c3)CC2)c1Cl`, for which the melting point lay in the range of 93 to 94.5 °C.
With `Cn1c(-c2cnc(-c3ccccc3)nc2)cnc1-c1ccccc1`, the melting point was 211 °C.
The value for `COC(=O)[C@@H]1C[C@H](N)C(=O)[C@H]2[C@@]1(C)CC[C@H]1C(=O)O[C@H](c3ccoc3)C[C@]21C` was 237 to 240 °C.
Turning to `Cc1c(O)nc2ccc(F)cc2c1C(=O)O`, the melting point is more than 305 °C.
In turn, `CC(=O)OCC1OC(n2cnc3c(NCC(c4ccccc4)c4ccccc4)nc(Cl)nc32)C(OC(C)=O)C1OC(C)=O` (stereo not given) came in with a melting point of 68 to 71 °C.
The value for `COP(=O)(Cc1ccc(-c2nc3ccccc3s2)nc1)OC` was 152 °C.
The compound `C=CCNC(=O)CN1CCN(Cc2ccc3c(c2)NC(=O)C(C)O3)CC1` (stereo not given) showed a melting point of 151 to 158 °C.
The compound `O=c1[nH]c2ccccc2c2cc(C(O)c3ccccc3)nn12` (stereo not given) registered a melting point of 231 to 233 °C.
The compound `CCSc1nsc(NC(=O)N(C)C)c1C(N)=O` gave a melting point of 147 °C.
As for `CCOC(=O)N1CCc2nc3c(Cl)cccc3c(C)c2CC1`, the melting point came out at 169 °C.
With `COC(=O)NC1=NCC(c2ccccc2)CN1C` (stereo not given), the melting point lay in the range of 176 to 177 °C.
`CC(=O)OC1CSC(Oc2cncc(-c3cccs3)c2)C(OC(C)=O)C1OC(C)=O` (stereo not given) gave a melting point of 166 °C.
In the case of `O=C(NCCO)/C(=C/c1ccc(OCC(F)F)cc1)NC(=O)c1ccc(OCCCC2CC2)cc1`, the melting point lay within 149 to 151 °C.
In the case of `Cc1ccc(O)c(C)c1O`, the melting point was 102 to 104 °C.
`CCOC(=O)C(=CNc1ccc(F)c(N2CCN(C(C)=O)CC2)n1)C(=O)OCC` registered a melting point of 164 to 165 °C.
Consider `COc1ccc(OC)c(CCNC(=O)N(C)O)c1`, for which the melting point lay in the range of 73 to 74 °C.
As for `CC1=C(C(=O)OC(C)C)C(c2cccc([N+](=O)[O-])c2)C(C(=O)O)=NN1` (stereo not given), the melting point came to 195 °C.
As for `C#CCN1C(=O)COc2cc(F)c(N)cc21`, the melting point lay within 132 to 134 °C.
In the case of `COc1ccc(-c2c3c(nn2-c2ccccc2)-c2cccc(N)c2C3=O)cc1`, the melting point turned out to be 273 °C.
`N#Cc1c(N2CCCCC2)cc(-c2ccc3ccccc3c2)c2c1-c1ccccc1C2=O`: the melting point fell in the range of 166 to 167 °C.
In the case of `OC(c1ccccc1)(c1ccc(F)cc1)c1ncc[nH]1` (stereo not given), the melting point was in the range of 199 to 200 °C.
`CCOC(=O)c1cc(NCc2ccccc2)c(Sc2ccccc2C)c(S(N)(=O)=O)c1` yielded a melting point of 166 to 167 °C.
The value for `Cc1nc(C(F)(F)F)ccc1C(=O)C1=C(Sc2ccc(Cl)cc2)C2CCC(C2)C1=O` (stereo not given) was 130 to 131 °C.
With `Cc1nc2c(s1)-c1nc(Nc3ccccc3)ncc1CC2` the figure was 223 to 224 °C.
In the case of `Cc1ccc2c(NCc3ccc(NC(=O)c4ccc(Cl)cc4)cc3)nc(N3CCCCCC3)nc2c1`, the melting point was 192 to 194 °C.
`CCOC(=O)c1c(-c2cccc(F)c2)c(C#N)n2c1CN(C(=O)OC(C)(C)C)CC2`: the melting point is 129 to 131 °C.
For `Cc1ccc(-c2c3n(c(=O)c4ncccc24)CCN(Cc2cc(C(F)(F)F)cc(C(F)(F)F)c2)C3=O)cc1`, the melting point lay within 270 to 271 °C.
Turning to `Cc1cc(N)ncc1I`, the melting point lay within 198 to 200 °C.
For the compound `COc1cccc(Cc2snnc2-c2ccco2)c1`, the melting point lay within 80.6 to 82 °C.
In turn, `CC(C)NC(=O)COC1c2ccccc2C(=O)N1c1ccc2ccc(Cl)nc2n1` (stereo not given) had a melting point of 188 °C.
With `O=C1c2cc([N+](=O)[O-])cc3c(N4CCCC4)c(Cl)cc(c23)C(=O)N1O` the figure was 209 to 210 °C; with `Cc1nc(NCC2CC2)c2nnn(-c3ccc(C(C)C)cc3Br)c2n1`, 166 to 167 °C; with `CC(=O)Oc1cc(N2C(=O)CC(SC3CCCCC3)C2=O)ccc1C(=O)O` (stereo not given), 155 to 158 °C.
On to `CCOC(C)Oc1cnc(C(C)C)nc1O` (stereo not given), for which the melting point is 70 °C.
In the case of `COc1cccc(C2C=C(C)NC3=C2C(=O)CCC3)c1` (stereo not given), the melting point was 164 to 167 °C.
Compound `Nc1ncnc2c1ncn2C1CC(O)C2CC21` (stereo not given) came in with a melting point of 259 to 261 °C.
With `CNS(=O)(=O)c1cc(OC)c(OC)c(C(=O)O)c1` the figure was 164 to 165 °C.
The value for `CN1C(=O)CN=C(c2ccccc2F)c2cc(CCN)ccc21` was 125 °C.
As for `CNc1c([N+](=O)[O-])c(Br)nn1Cc1ccccc1`, the melting point came out at 116 °C.
